How the values were obtained:
[1] = Dissolution of hapten-spacer conjugate for coupling; assay type: physicochemical; settings: at 50 mg per ml
Procedure: a) The hapten-spacer conjugates were obtained as a yellow oil and stored at 2 to 8° C. until the day of use (for up to one week, longer storage was at −20° C.). […] The result was a yellow-brown suspension or solution.

anti-nicotine antibodies = test: Competition ELISA to determine specificity of antibodies induced by anti-nicotine vaccines; assay type: binding, mouse; settings: plasma of mice immunized with conjugates of examples 1 and 2; inhibitors diluted serially from 20,000 μM

| inhibition of binding of anti-nicotine antibodies to nicotine-coated ELISA plates by added inhibitor (anti-nicotine antibodies) | Structure (SMILES) | solubility in deionised water [1] |
| --- | --- | --- |
| – | CN1CCC[C@H]1c1cncc(CCCNC(=O)CCCCCCN)c1 [Preparation 33, 7-amino-N-(3-{5-[(2S)-1-methylpyrrolidin-2-yl]pyridin-3-yl}propyl) heptanamide] | did not dissolve fully in deionised water |
| no such effect is observed | CN1C(=O)CC[C@H]1c1cccnc1 [cotinine] | – |
| no such effect is observed | c1cnc2cc3c(cc2n1)[C@@H]1CNC[C@H]3C1 [varenicline] | – |

| Structure (SMILES) | inhibition of binding of anti-nicotine antibodies to nicotine-coated ELISA plates by added inhibitor (anti-nicotine antibodies) | solubility in deionised water [1] |
| --- | --- | --- |
| CN1CCCC1c1cccnc1 (stereo not shown) [nicotine] | dose-dependent inhibition of binding | – |
